In the supplement of paper PMC11061612:

How the values were obtained:
CHP-212 (Neuroblastoma) [1] = test: Bliss excess, mean over the matrix (fraction); higher = more synergy
Method in brief: (§1)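 Cell lines grown in DMEM/F12 or RPMI with 10% FBS were plated in 1536-well plates and held 24 hours at 37°C, 5% CO2 before 72 hours of exposure to two-drug dose matrices, with DMSO typically at 0.2%. CellTiter-Glo 2.0 luminescence gave viability, which was converted to inhibition. Vehicle wells were set to 0 and blank wells to 1. Combination Emax is the second-highest inhibition in the matrix, and Bliss excess is the observed combination effect minus the expected EA + EB − EA·EB, where EA and EB are the single-agent effects.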

[2] = tested on: COLO-678 (Colorectal Carcinoma); test: as above
Method in brief: as §1

[3] = tested on: DiFi (Colorectal Carcinoma); test: as above
Method in brief: as §1

[4] = tested on: EVSA-T (Breast Carcinoma); test: as above
Method in brief: as §1

[5] = tested on: HDQ-P1 (Breast Carcinoma); test: as above
Method in brief: as §1

[6] = tested on: HL-60 (Acute Myeloid Leukemia); test: as above
Method in brief: as §1

[7] = tested on: KARPAS-45 (T-Lymphoblastic Leukemia); test: as above
Method in brief: as §1

[8] = tested on: KCL-22 (Chronic Myelogenous Leukemia); test: as above
Method in brief: as §1

[9] = tested on: KM12 (Colorectal Carcinoma); test: as above
Method in brief: as §1

[10] = tested on: KYSE-180 (Esophageal Squamous Cell Carcinoma); test: as above
Method in brief: as §1

LN-18 (Glioblastoma) [11] = test: as above
Method in brief: as §1

MEL-JUSO (Melanoma) [12] = test: as above
Method in brief: as §1

[13] = tested on: MFM-223 (Breast Carcinoma); test: as above
Method in brief: as §1

[14] = tested on: MOLT-16 (T-Lymphoblastic Leukemia); test: as above
Method in brief: as §1

[15] = tested on: MS751 (Cervical Carcinoma); test: as above
Method in brief: as §1

[16] = tested on: P12-ICHIKAWA (T-Lymphoblastic Leukemia); test: as above
Method in brief: as §1

[17] = tested on: PANC-08-13 (Pancreatic Carcinoma); test: as above
Method in brief: as §1

[18] = tested on: SU-DHL-8 (B-Cell Non-Hodgkin's Lymphoma); test: as above
Method in brief: as §1

TC-71 (Ewing's Sarcoma) [19] = test: as above
Method in brief: as §1

[20] = tested on: TE-6 (Esophageal Squamous Cell Carcinoma); test: as above
Method in brief: as §1

[21] = tested on: TOV-112D (Ovarian Carcinoma); test: as above
Method in brief: as §1

U251 (Low Grade Glioma) [22] = test: as above
Method in brief: as §1

CHP-212 (Neuroblastoma) [23] = test: combination Emax (second highest fraction inhibited in the dose matrix, 72 h); higher = more inhibition; extreme values may be limits of the assay
Method in brief: as §1

[24] = tested on: COLO-678 (Colorectal Carcinoma); test: as above
Method in brief: as §1

[25] = tested on: DiFi (Colorectal Carcinoma); test: as above
Method in brief: as §1

[26] = tested on: EVSA-T (Breast Carcinoma); test: as above
Method in brief: as §1

[27] = tested on: HDQ-P1 (Breast Carcinoma); test: as above
Method in brief: as §1

[28] = tested on: HL-60 (Acute Myeloid Leukemia); test: as above
Method in brief: as §1

[29] = tested on: KARPAS-45 (T-Lymphoblastic Leukemia); test: as above
Method in brief: as §1

[30] = tested on: KCL-22 (Chronic Myelogenous Leukemia); test: as above
Method in brief: as §1

[31] = tested on: KM12 (Colorectal Carcinoma); test: as above
Method in brief: as §1

[32] = tested on: KYSE-180 (Esophageal Squamous Cell Carcinoma); test: as above
Method in brief: as §1

LN-18 (Glioblastoma) [33] = test: as above
Method in brief: as §1

MEL-JUSO (Melanoma) [34] = test: as above
Method in brief: as §1

[35] = tested on: MFM-223 (Breast Carcinoma); test: as above
Method in brief: as §1

[36] = tested on: MOLT-16 (T-Lymphoblastic Leukemia); test: as above
Method in brief: as §1

[37] = tested on: MS751 (Cervical Carcinoma); test: as above
Method in brief: as §1

[38] = tested on: P12-ICHIKAWA (T-Lymphoblastic Leukemia); test: as above
Method in brief: as §1

[39] = tested on: PANC-08-13 (Pancreatic Carcinoma); test: as above
Method in brief: as §1

[40] = tested on: SU-DHL-8 (B-Cell Non-Hodgkin's Lymphoma); test: as above
Method in brief: as §1

TC-71 (Ewing's Sarcoma) [41] = test: as above
Method in brief: as §1

[42] = tested on: TE-6 (Esophageal Squamous Cell Carcinoma); test: as above
Method in brief: as §1

[43] = tested on: TOV-112D (Ovarian Carcinoma); test: as above
Method in brief: as §1

U251 (Low Grade Glioma) [44] = test: as above
Method in brief: as §1
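Wherever Bliss excess, mean over the matrix is given: after 72 h of two-drug dosing.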

COc1nnc2ccc(N3CCC(c4ccc(OCCN5CCN(C)C(=O)[C@H]5C)cc4)CC3)nn12 [AZD5153] + CN(CC[C@H](CSC1=CC=CC=C1)NC2=C(C=C(C=C2)S(=O)(=O)NC(=O)C3=CC=C(C=C3)N4CCC(CC4)[C@H](C5=CC=CC=C5C6=CC=C(C=C6)Cl)O)S(=O)(=O)C(F)(F)F)CCO [AZD4320] (first compound max 1 µM, 7x7, partner max 1 µM) gave a Bliss excess (CHP-212 (Neuroblastoma) [1]) of -0.0243, a Bliss excess [2] of 0.0322 and a Bliss excess [3] of 0.0671. The Bliss excess [4] was 0.0426, the Bliss excess [5] was 0.0844 and the Bliss excess [6] was -0.0203. It also gave a Bliss excess [7] of 0.0274, a Bliss excess [8] of 0.078 and a Bliss excess [9] of 0.0033. The Bliss excess [10] was 0.0551, the Bliss excess (LN-18 (Glioblastoma) [11]) was -0.0251 and the Bliss excess (MEL-JUSO (Melanoma) [12]) was 0.0122. For the same molecule, the Bliss excess [13] was -0.0065, the Bliss excess [14] was 0.0258 and the Bliss excess [15] was 0.0372. The Bliss excess [16] was 0.0283, the Bliss excess [17] was 0.0589 and the Bliss excess [18] was -0.128. For the same molecule, the Bliss excess (TC-71 (Ewing's Sarcoma) [19]) was -0.081, the Bliss excess [20] was -0.0157 and the Bliss excess [21] was 0.0022. The Bliss excess (U251 (Low Grade Glioma) [22]) was 0.0547, the “combination Emax” value (CHP-212 (Neuroblastoma) [23]) was 0.896 and the “combination Emax” value [24] was 0.459. The “combination Emax” value [25] was 0.818, the “combination Emax” value [26] was 0.938 and the “combination Emax” value [27] was 0.967. For the same molecule, the “combination Emax” value [28] was 0.994, the “combination Emax” value [29] was 1 and the “combination Emax” value [30] was 0.963. The “combination Emax” value [31] was 0.648, the “combination Emax” value [32] was 0.326 and the “combination Emax” value (LN-18 (Glioblastoma) [33]) was 0.605. For the same molecule, the “combination Emax” value (MEL-JUSO (Melanoma) [34]) was 0.3, the “combination Emax” value [35] was 0.544 and the “combination Emax” value [36] was 1. The “combination Emax” value [37] was 0.726, the “combination Emax” value [38] was 1 and the “combination Emax” value [39] was 0.876. For the same molecule, the “combination Emax” value [40] was 1, the “combination Emax” value (TC-71 (Ewing's Sarcoma) [41]) was 0.814 and the “combination Emax” value [42] was 0.81. The “combination Emax” value [43] was 0.664 and the “combination Emax” value (U251 (Low Grade Glioma) [44]) was 0.505.
